Experimental data as given in ChEMBL document CHEMBL1139807, “Discovery of (-)-6-[2-[4-(3-fluorophenyl)-4-hydroxy-1-piperidinyl]-1-hydroxyethyl]-3,4-dihydro-2(1H)-quinolinone--a potent NR2B-selective N-methyl D-aspartate (NMDA) antagonist for the treatment of pain” (Bioorg Med Chem Lett, 2007).

How the values were obtained:
Cytochrome P450 2D6 = Cytochrome P450 2D6 (Homo sapiens, UniProt P10635); assay: Displacement of [3H]bufuralol from CYP2D6; format: ADME
[1] = molecular target: Glutamate receptor ionotropic, NMDA 2B (Rattus norvegicus, UniProt P35439+Q00960); assay: Displacement of [3H]racemic CP-101606 from rat NR2B receptor in P2 membrane; format: cell membranes
Sequence of Glutamate receptor ionotropic, NMDA 2B (Q00960 whole entry, one chain of several): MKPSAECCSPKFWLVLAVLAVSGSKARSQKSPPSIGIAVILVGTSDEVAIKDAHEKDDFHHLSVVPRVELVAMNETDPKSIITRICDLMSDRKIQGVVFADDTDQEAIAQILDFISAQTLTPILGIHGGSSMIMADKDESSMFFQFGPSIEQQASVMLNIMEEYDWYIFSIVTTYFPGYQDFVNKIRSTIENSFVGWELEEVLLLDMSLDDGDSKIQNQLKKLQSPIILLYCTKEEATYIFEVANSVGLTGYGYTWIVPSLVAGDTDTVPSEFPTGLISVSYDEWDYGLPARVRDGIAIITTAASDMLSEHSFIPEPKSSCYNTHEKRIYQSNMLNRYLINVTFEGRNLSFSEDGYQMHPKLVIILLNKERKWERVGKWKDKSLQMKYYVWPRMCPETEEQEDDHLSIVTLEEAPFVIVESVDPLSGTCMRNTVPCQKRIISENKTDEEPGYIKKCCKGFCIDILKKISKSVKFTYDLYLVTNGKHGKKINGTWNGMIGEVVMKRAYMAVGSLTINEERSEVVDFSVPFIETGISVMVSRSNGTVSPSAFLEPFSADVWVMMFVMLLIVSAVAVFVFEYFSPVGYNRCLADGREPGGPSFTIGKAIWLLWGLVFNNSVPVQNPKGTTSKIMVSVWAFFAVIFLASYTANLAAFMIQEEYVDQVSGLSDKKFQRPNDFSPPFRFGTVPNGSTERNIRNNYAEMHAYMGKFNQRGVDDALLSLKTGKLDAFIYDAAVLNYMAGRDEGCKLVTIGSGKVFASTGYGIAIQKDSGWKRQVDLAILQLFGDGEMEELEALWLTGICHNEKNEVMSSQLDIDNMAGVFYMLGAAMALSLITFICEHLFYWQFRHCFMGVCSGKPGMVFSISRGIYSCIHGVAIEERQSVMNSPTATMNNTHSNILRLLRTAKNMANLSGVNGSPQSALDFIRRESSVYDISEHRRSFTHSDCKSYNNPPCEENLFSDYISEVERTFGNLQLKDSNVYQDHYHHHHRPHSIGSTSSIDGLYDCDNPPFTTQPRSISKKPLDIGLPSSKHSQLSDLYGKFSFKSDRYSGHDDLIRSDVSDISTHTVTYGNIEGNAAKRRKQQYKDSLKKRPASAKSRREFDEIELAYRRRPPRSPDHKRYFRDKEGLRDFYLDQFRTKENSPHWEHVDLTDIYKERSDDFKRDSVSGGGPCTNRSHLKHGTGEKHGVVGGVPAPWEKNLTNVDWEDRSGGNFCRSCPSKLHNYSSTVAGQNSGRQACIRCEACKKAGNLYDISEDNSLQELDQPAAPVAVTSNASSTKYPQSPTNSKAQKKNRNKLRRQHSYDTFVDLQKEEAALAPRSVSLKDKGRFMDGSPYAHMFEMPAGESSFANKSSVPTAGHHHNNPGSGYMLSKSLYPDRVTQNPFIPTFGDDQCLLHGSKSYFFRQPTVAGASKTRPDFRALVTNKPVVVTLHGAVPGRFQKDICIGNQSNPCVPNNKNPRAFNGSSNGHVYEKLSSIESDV

[2] = molecular target: Voltage-gated inwardly rectifying potassium channel KCNH2 (Homo sapiens, UniProt Q12809); assay: Displacement of [3H]bufuralol from hERG channel expressed in HEK293 cells
Sequence of Voltage-gated inwardly rectifying potassium channel KCNH2 (Q12809 whole entry): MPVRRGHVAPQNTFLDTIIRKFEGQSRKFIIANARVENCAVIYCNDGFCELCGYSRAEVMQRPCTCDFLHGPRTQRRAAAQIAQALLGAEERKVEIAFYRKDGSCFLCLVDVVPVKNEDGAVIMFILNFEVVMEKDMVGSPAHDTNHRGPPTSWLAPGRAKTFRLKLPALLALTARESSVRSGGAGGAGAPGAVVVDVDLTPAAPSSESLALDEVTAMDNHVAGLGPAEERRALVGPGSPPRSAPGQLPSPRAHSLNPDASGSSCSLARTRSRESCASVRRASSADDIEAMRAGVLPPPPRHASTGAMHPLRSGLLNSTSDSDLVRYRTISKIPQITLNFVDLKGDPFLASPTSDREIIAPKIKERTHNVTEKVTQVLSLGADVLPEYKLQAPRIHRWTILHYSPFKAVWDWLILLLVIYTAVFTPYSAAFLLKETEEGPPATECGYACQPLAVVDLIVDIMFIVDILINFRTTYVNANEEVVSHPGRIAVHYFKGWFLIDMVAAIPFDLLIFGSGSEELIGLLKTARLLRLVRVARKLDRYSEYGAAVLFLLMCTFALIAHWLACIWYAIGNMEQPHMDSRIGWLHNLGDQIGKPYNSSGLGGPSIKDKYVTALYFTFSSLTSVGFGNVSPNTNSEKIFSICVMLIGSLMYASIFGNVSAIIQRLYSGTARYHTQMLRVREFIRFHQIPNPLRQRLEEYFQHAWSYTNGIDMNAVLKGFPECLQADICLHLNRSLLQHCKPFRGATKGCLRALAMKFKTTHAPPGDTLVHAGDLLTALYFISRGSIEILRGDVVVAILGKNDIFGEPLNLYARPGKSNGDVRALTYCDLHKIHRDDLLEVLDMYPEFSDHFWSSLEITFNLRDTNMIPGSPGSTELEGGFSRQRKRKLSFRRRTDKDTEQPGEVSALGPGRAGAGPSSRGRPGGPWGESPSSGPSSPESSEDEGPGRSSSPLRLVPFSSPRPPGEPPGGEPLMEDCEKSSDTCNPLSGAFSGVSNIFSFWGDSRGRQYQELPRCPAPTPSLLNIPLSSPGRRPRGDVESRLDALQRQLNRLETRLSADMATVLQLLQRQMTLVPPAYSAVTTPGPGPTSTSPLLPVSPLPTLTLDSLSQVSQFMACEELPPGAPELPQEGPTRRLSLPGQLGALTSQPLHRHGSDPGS

[3] = Ratio of Half life of compound in human liver microsome HHM0168 to half life in human liver microsome HHM0168 in presence of CYP2D6; format: ADME; conditions: microsomes
Rattus norvegicus = assay: Effect on haloperidol catalepsy in po dosed rat assessed as latency to paw withdrawal; format: functional; conditions: read-out: MED
hERG (KCNH2) = hERG (KCNH2) (Homo sapiens, UniProt Q12809); assay: Blockade of hERG channel expressed in HEK293 cells by electrophysiological method; format: cell-based; conditions: HEK293 cells expressing hERG channel
Sequence of hERG (KCNH2) (Q12809 whole entry): as above

Sequence of Cytochrome P450 2D6 (P10635 whole entry): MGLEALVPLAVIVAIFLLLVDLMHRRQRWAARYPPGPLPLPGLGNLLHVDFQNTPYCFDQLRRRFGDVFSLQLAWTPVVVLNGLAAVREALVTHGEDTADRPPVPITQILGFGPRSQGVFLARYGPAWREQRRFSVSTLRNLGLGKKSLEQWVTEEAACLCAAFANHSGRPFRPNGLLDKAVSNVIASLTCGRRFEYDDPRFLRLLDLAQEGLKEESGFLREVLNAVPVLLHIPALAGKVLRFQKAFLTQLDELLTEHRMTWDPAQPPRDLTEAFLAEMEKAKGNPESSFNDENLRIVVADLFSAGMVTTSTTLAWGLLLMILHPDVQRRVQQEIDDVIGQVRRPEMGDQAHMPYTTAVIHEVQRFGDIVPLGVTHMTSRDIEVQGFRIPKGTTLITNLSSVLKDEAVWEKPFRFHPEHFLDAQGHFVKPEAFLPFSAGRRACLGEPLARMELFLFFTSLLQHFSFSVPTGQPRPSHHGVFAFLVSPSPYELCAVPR

SMILES | IC50 (Cytochrome P450 2D6) | IC50 [1] | IC50 [2] | Ratio [3] | minimal effective dose (Rattus norvegicus) | IC20 (hERG (KCNH2))
CC(C(O)c1ccc(O)c(-c2ccccc2)c1)N1CCC(O)(c2ccc(F)cc2)CC1 (racemic) | 8400 nM | 570 nM |  |  |  | 
CC(C(O)c1ccc2[nH]c(=O)oc2c1)N1CCC(O)(c2ccc(F)cc2)CC1 (racemic) | 11000 nM | 41 nM | 2600 nM | 1 |  | 
CC(C(O)c1ccc2c(c1)OCC(=O)N2)N1CCC(O)(c2ccc(F)cc2)CC1 (racemic) | > 30000 nM | 8.7 nM | 1600 nM | 1 |  | 
CC(C(O)c1ccc2c(c1)CNC(=O)N2)N1CCC(O)(c2ccc(F)cc2)CC1 (racemic) | > 30000 nM | 9.1 nM | 7400 nM | 1 |  | 
CC(C(O)c1ccc2c(c1)CN(C)C(=O)N2)N1CCC(O)(c2ccc(F)cc2)CC1 (racemic) | > 30000 nM | 14 nM | 3100 nM | 1 |  | 
CC(C(O)c1ccc2c(c1)CCC(=O)N2)N1CCC(O)(c2ccc3c(c2)COCC3)CC1 (racemic) |  | 15 nM | 16000 nM |  | > 30 mg/kg | 
COc1cccc(C2(O)CCN(C(C)C(O)c3ccc4c(c3)CCC(=O)N4)CC2)c1 (racemic) |  | 8.3 nM |  |  | 30 mg/kg | 
O=C1CCc2cc(C(O)CN3CCC(O)(c4cccc(F)c4)CC3)ccc2N1 (racemic) |  | 4.5 nM | 13000 nM |  |  | 
Cc1cc(C(O)C(C)N2CCC(O)(c3ccc(F)cc3)CC2)ccc1O (racemic) | < 300 nM |  |  |  |  | 
Cc1cc(O)ccc1C(O)C(C)N1CCC(O)(c2ccc(F)cc2)CC1 (racemic) | 3900 nM | 16 nM |  | > 4.5 |  | 
CC(C(O)c1ccc(O)c(C(C)(C)C)c1)N1CCC(O)(c2ccc(F)cc2)CC1 (racemic) |  | > 5000 nM |  |  |  | 
Cc1ccc(C2(O)CCN(C(C)C(O)c3ccc4c(c3)CCC(=O)N4)CC2)cc1 (racemic) |  | 9.1 nM |  |  |  | 
CC(C(O)c1ccc2c(c1)CCC(=O)N2)N1CCC(O)(c2cccc(COc3ccccc3)c2)CC1 (racemic) |  | 6.3 nM |  |  |  | 
CC(C(O)c1ccc2c(c1)CCC(=O)N2)N1CCC(O)(c2ccc(Cl)cc2)CC1 (racemic) |  | 6.6 nM |  |  | 10 mg/kg | 
CC(C(O)c1ccc(O)c(Cl)c1)N1CCC(O)(c2ccc(F)cc2)CC1 (racemic) | 3500 nM | 5.6 nM |  | 1.6 |  | 
CC(C(O)c1ccc2c(c1)COC(=O)N2)N1CCC(O)(c2ccc(F)cc2)CC1 (racemic) | > 30000 nM | 18 nM | 2400 nM | 1 |  | 
CC(C(O)c1ccc2c(c1)CCC(=O)N2)N1CCC(O)(c2ccc(F)cc2)CC1 (racemic) | > 30000 nM | 11 nM |  |  |  | 
CC(C(O)c1ccc2c(c1)CCC(=O)N2)N1CCC(O)(c2cccc(F)c2)CC1 (racemic) |  | 10 nM |  |  | 10 mg/kg | 
O=C1CCc2cc(C(O)CN3CCC(O)(c4cccc(F)c4)CC3)ccc2N1 (single isomer, unassigned; (+)) |  | 6.8 nM | 9800 nM |  |  | 
O=C1CCc2cc(C(O)CN3CCC(O)(c4cccc(F)c4)CC3)ccc2N1 (single isomer, unassigned; (-)) |  | 5 nM | 21000 nM |  |  | 1100 nM
C[C@@H]([C@@H](O)c1ccc(O)cc1)N1CCC(O)(c2ccccc2)CC1 [TRAXOPRODIL] |  |  | 10000 nM |  |  | 150 nM
